From PubChem BioAssay (NCI) come the findings set out here.

Where “and” joins values, the source holds several entries; their conditions need not be identical. Equal values may be shown once.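 Each compound was tested at five concentrations against cells in 96-well plates for 48 hours. GI50 marks 50% less growth. At the TGI there is no net growth.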 A value given as a limit tells only on which side of the number the result lay.

What all share (test): NCI anticancer screen, dose series, 48 h
Test [1] relates to ACHN renal.
In test [2] the test system is CCRF-CEM leukemia.
The test system of test [3] is HOP-92 NSCLC.
The test system of test [4] is HS 578T breast.
Test [5] has as its system MALME-3M melanoma.
The subject of test [6] is NCI-H460 lung.
For test [7], the system named is NCI/ADR-RES ovarian.
The subject of test [8] is OVCAR-3 ovarian.
Test [9] concerns OVCAR-4 ovarian.
Test [10] deals with SK-MEL-28 melanoma.

With `CC(/C=N/N=C(N)N)=N\N=C(N)N`, the GI50 is > 43.5 µM in test [1]; 18.8 µM in test [2]; 54.4 µM in test [3]; > 39.6 µM in test [5]; 26.3 µM in test [6]; 20.8 µM in [7]. In addition, the GI50 was 11.1 µM in test [8], 13.2 µM in [9] and > 80.2 µM in test [10]. The TGI in test [1] is 2110 µM; in test [2] it was > 78.5 µM and 1300 µM; in [3] it was 62.5 µM; in test [4] it was 169 µM; in test [5], > 76.9 µM and 214 µM; in test [6], 201 µM. Further, the TGI in test [7] is 61.1 µM and 126 µM; in test [8] it was 130 µM; in [9], 95.3 µM; in test [10] it was 363 µM.
In the case of `O=C(CCCCCCCCC(=O)N/N=C\c1cc(Cl)ccc1O)N/N=C\c1cc(Cl)ccc1O`, the GI50 in [1] is 0.175 µM; in test [2] it was 0.172 µM; in [3], 0.105 µM; in test [4] it was 16.4 µM; in [5], 0.462 µM; in test [6] it was 0.162 µM. Besides, the GI50 was 0.294 µM in [7], 0.311 µM in test [8], 0.315 µM in test [9] and 2.64 µM in [10]. Moreover, the TGI in [1] is > 100 µM; in [2] it was 24.6 µM; in test [3], 37.5 µM; in [4], > 100 µM; in test [5], > 100 µM; in [6], 19.6 µM. Moreover, the TGI in test [8], in [9] and in [10] was > 100 µM throughout.
As to `CC(N1CCOCC1)C(O)(c1ccccc1)c1ccccn1` (stereo not drawn), the TGI in test [1], in [3], in test [4], in test [5], in [6] and in test [7] was > 100 µM throughout. Moreover, the TGI in test [8], in test [9] and in test [10] was > 100 µM each time.
Consider `CN=C(N)N/N=C(\C)c1ccc2c(c1)Cc1ccccc1-2`, for which the GI50 in test [1] was 1.78 µM; in [2], 1.73 µM; in test [3], 1.63 µM; in test [4], 3.17 µM; in [5] it was 1.51 µM; in test [6], 0.556 µM. Also, the figures for the GI50 in test [7], in test [9] and in test [10] were 2.02 µM, 3.98 µM and 2.22 µM, respectively. Further, the TGI in test [1] came out at 3.61 µM; in [2], 7.14 µM; in test [3] it was 5.67 µM; in test [5], 3.02 µM; in [6] it was 1.81 µM; in [7], 4.5 µM. Also, the TGI in test [9] was 19.4 µM; in [10], 4.63 µM.
For the compound `O=C(NOCCO)c1cc(CN2OCCCC2=O)c(F)c(F)c1Nc1ccc(I)cc1F`, the GI50 was 4.28 µM in [1]; 39.5 µM and > 10 µM in test [2]; 0.0223 µM and 0.0177 µM in [3]; 20.6 µM and > 10 µM in test [4]; < 0.01 µM and 0.00185 µM in test [5]; 12.9 µM and > 10 µM in [6]. Moreover, the GI50 in test [7] is 19.4 µM and > 10 µM; in [8] it was 28.9 µM and > 10 µM; in test [9] it was 6.13 µM and > 7.82 µM; in test [10] it was < 0.01 µM and 0.00249 µM. The TGI in [1] was > 100 µM; in test [2] it was > 100 µM; in test [3], 0.688 µM and 0.436 µM; in test [4] it was > 100 µM; in test [5] it was < 0.01 µM; in [6], > 100 µM. Besides, the TGI was > 100 µM in [7]; 98.7 µM and > 10 µM in test [8]; > 90.4 µM in test [9]; 0.0712 µM and 0.124 µM in test [10].
Regarding `Nc1nc(N)c2c(n1)NC(c1sc(Cl)nc1Cl)CC(c1ccc3c(c1)OCO3)=N2` (stereo not drawn), the GI50 is 5.86 µM in [1]; 3.02 µM in test [2]; 4.25 µM in test [3]; 2.35 µM in [4]; 14.3 µM in [5]; 3.99 µM in [6]. Moreover, the GI50 in test [7] was 3.55 µM; in test [8], 3.94 µM; in test [10], 7.63 µM. The TGI came to 26.4 µM in test [1]; 27 µM in test [2]; 23.8 µM in [3]; 31.1 µM in test [4]; 29.1 µM in test [5]; 18.1 µM in test [6]. In addition, the values for the TGI in [7], in [8] and in [10] were 25.3 µM, 17.4 µM and 29.2 µM, respectively.
For the compound H-QIYKKYRTWYRKAWKVLGKV-NH2, the GI50 in [1] was 12 µM; in test [2], 4.14 µM; in [3], 1.95 µM; in [4] it was 2.57 µM; in [6] it was 3.24 µM; in test [7] it was 4.81 µM. Further, the GI50 was 4.3 µM in test [8], 9.03 µM in [9] and 4.89 µM in test [10]. Also, the TGI in test [1] was 25.5 µM; in test [2] it was > 100 µM; in [3], 4.81 µM; in [4], 8.51 µM; in test [6], 12.4 µM; in [7], > 100 µM. Besides, the TGI in test [8] was found to be 22.3 µM; in [9], 50.5 µM; in test [10] it was 22.5 µM.
Turning to `C/C(=N/O)c1ccc(Nc2cc(-n3ccnc3)c3ccccc3n2)cc1`, the GI50 in [1] is 18.6 µM; in [2], 0.126 µM; in test [3], 38.3 µM; in test [4], 12.9 µM; in test [5], 11.4 µM; in test [6], 21.5 µM. Besides, the GI50 was 42.9 µM in [7], 22.5 µM in [8] and 70.4 µM in test [10]. Besides, the TGI in test [1] is 90.8 µM; in test [2], 1.99 µM; in test [3] it was > 100 µM; in [4], > 100 µM; in test [5] it was 44.5 µM; in [6], > 100 µM. Besides, the results for the TGI in [7], in test [8] and in [10] were > 100 µM, 91.3 µM and > 100 µM, respectively.
